According to patent US11760754B2, “Heterocyclic mitochondrial activity inhibitors and uses thereof” (UNIVERSITÉ DE MONTRÉAL, priority 2017, dated 2023):

Columns and labels:
OCI-AML3 cells = assay: OCI-AML3 cell growth inhibition, dose-response viability assay (CellTiterGlo); type: cell-based; details: Homo sapiens, OCI-AML-3, 144 h, read-out: AML-3 EC50
Experimental: Cell dose-response viability assays. […] In the initial screen, compounds were added to seeded cells in serial dilutions (10 dilutions, 1:3, starting from […] 20 μM), in duplicates.
(§1) The potency of the compounds of Example 6 at inhibiting OCI-AML3 cell growth was tested using a procedure similar to that described for Mutritinib in Example 1. […] Murine MLL-AF9 leukemia cells (female cells) were generated by infection with VSV-G-pseudotyped MSCV MLL-AF9 IRES Puro (subcloned from a construct by Frédéric Barabé, Laval U, Quebec, QC, Canada).
(§2) Compounds were added to seeded cells in serial dilutions from 10 μM to 0.5 nM, in duplicates or quadruplicates.

MLL-AF9 cells = assay: MLL-AF9 leukemia cell growth inhibition, dose-response viability assay (CellTiterGlo); type: cell-based, murine; details: Mus musculus, MLL-AF9, 120 h, read-out: MLL-AF9 EC50
Experimental: as §1, §2

Compound | EC50 (OCI-AML3 cells) [nM] | EC50 (MLL-AF9 cells) [nM]
CS(=O)(=O)NCCc1nccn1CCCCc1ccc(OCc2coc(/C=C/c3ccc(C(F)(F)F)cc3)n2)cc1 [Compound 54, (E)-N-(2-(1-(4-(4-((2-(4-(trifluoromethyl)styryl)oxazol-4-yl)methoxy)phenyl)butyl)-1H-imidazol-2-yl)ethyl)methanesulfonamide] | 100 to 500 | 100 to 500
O=S(=O)(NCCc1nccn1CCCCc1ccc(OCc2coc(/C=C/c3ccc(C(F)(F)F)cc3)n2)cc1)C(F)(F)F [Compound 55, (E)-1,1,1-trifluoro-N-(2-(1-(4-(4-((2-(4-(trifluoromethyl)styryl)oxazol-4-yl)methoxy)phenyl)butyl)-1H-imidazol-2-yl)ethyl)methanesulfonamide] | 500 to 1000 | 100 to 500
COC(=O)c1ccc(/C=C/c2nc(COc3ccc(CCCCn4ccnn4)cc3)co2)cc1 [Compound 58, (E)-methyl 4-(2-(4-((4-(4-(1H-1,2,3-triazol-1-yl)butyl)phenoxy)methyl)oxazol-2-yl)vinyl)benzoate] | 500 to 1000 | 1000 to 10000
C#CCNC(=O)c1ccc(/C=C/c2nc(COc3ccc(CCCCn4ccnn4)cc3)co2)cc1 [Compound 59, (E)-4-(2-(4-((4-(4-(1H-1,2,3-triazol-1-yl)butyl)phenoxy)methyl)oxazol-2-yl)vinyl)-N-(prop-2-yn-1-yl)benzamide] | 500 to 1000 | 100 to 500
COc1ccc(/C=C/c2nc(COc3ccc(CCCCn4ccnn4)cc3)co2)c(F)c1 [Compound 61, (E)-4-((4-(4-(1H-1,2,3-triazol-1-yl)butyl)phenoxy)methyl)-2-(2-fluoro-4-methoxystyryl)oxazole] | 100 to 500 | 100 to 500
NC(=O)c1ccc(/C=C/c2nc(COc3ccc(CCCCn4ccnn4)cc3)co2)cc1 [Compound 63, (E)-4-(2-(4-((4-(4-(1H-1,2,3-triazol-1-yl)butyl)phenoxy)methyl)oxazol-2-yl)vinyl)benzamide] | 500 to 1000 | 1000 to 10000
O=[N+]([O-])c1ccc(/C=C/c2nc(COc3ccc(CCCCn4ccnn4)cc3)co2)c(F)c1 [Compound 65, (E)-4-((4-(4-(1H-1,2,3-triazol-1-yl)butyl)phenoxy)methyl)-2-(2-fluoro-4-nitrostyryl)oxazole] | 50 to 100 | < 50
Nc1ccc(/C=C/c2nc(COc3ccc(CCCCn4ccnn4)cc3)co2)c(F)c1 [Compound 66, (E)-4-(2-(4-((4-(4-(1H-1,2,3-triazol-1-yl)butyl)phenoxy)methyl)oxazol-2-yl)vinyl)-3-fluoroaniline] | 1000 to 10000 | 1000 to 10000

Further lines, results first:

EC50 (OCI-AML3 cells) [nM] | EC50 (MLL-AF9 cells) [nM] | Compound
1000 to 10000 | 1000 to 10000 | FC(F)(F)c1ccc(/C=C/c2cccc(COc3ccc(CCCCn4ccnn4)cc3)c2)cc1 [Compound 56, (E)-1-(4-(4-((3-(4-(trifluoromethyl)styryl)benzyl)oxy)phenyl)butyl)-1H-1,2,3-triazole]
1000 to 10000 | 500 to 1000 | FC(F)(F)c1ccc(/C=C/c2ccc(COc3ccc(CCCCn4ccnn4)cc3)cc2)cc1 [Compound 57, (E)-1-(4-(4-((4-(4-(trifluoromethyl)styryl)benzyl)oxy)phenyl)butyl)-1H-1,2,3-triazole]
1000 to 10000 | 1000 to 10000 | OCc1ccc(/C=C/c2nc(COc3ccc(CCCCn4ccnn4)cc3)co2)cc1 [Compound 60, (E)-(4-(2-(4-((4-(4-(1H-1,2,3-triazol-1-yl)butyl)phenoxy)methyl)oxazol-2-yl)vinyl)phenyl)methanol]
100 to 500 | 100 to 500 | Oc1ccc(/C=C/c2nc(COc3ccc(CCCCn4ccnn4)cc3)co2)cc1 [Compound 62, (E)-4-(2-(4-((4-(4-(1H-1,2,3-triazol-1-yl)butyl)phenoxy)methyl)oxazol-2-yl)vinyl)phenol]
1000 to 10000 | 500 to 1000 | C#Cc1ccc(/C=C/c2nc(COc3ccc(CCCCn4ccnn4)cc3)co2)cc1 [Compound 64, (E)-4-((4-(4-(1H-1,2,3-triazol-1-yl)butyl)phenoxy)methyl)-2-(4-ethynylstyryl)oxazole]
